{
  "source": "paper PMC7546796",
  "about": "“Myricanol Inhibits the Type III Secretion System of Salmonella enterica Serovar Typhimurium by Interfering With the DNA-Binding Activity of HilD” (Frontiers in Microbiology, 2020)",
  "target": "HilD (Salmonella enterica, UniProt P0CL08)",
  "sequence (P0CL08 whole entry)": "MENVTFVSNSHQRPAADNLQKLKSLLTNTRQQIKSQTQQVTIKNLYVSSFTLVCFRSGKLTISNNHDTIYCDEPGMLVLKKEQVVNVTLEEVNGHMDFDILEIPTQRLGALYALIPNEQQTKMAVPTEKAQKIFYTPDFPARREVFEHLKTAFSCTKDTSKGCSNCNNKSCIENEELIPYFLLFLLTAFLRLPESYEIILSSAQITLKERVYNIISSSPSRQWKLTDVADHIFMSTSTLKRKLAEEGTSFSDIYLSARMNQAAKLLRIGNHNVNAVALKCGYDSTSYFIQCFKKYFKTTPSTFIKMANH",
  "test": "microscale thermophoresis with dye-labeled purified HilD; supported by thermal shift, DARTS and EMSA",
  "type": "binding",
  "data": [
    {"smiles": "COc1c2cc(c(O)c1OC)CCCC[C@@H](O)CCc1ccc(O)c-2c1", "note": "[compound 1, myricanol]", "values": [
      {"measurement": "Kd", "result": "1380 ± 530", "unit": "nM"}
    ]}
  ]
}
